Laboratory results: US10662229B2, “Spider venom peptides and methods of use for modulating sodium channels” (priority 2016, dated 2020)
pIC50: −log10 of the molar value. Where a SMILES comes first, the peptide text is derived from it. Bridges are numbered along the chain shown (N, C = ends).

Legend:
Type in all cases: cell-based
hNav1.2 = target: T1, hNav1.2 (Homo sapiens, UniProt Q99250); assay: FLIPR membrane potential assay, hNav1.2; conditions: for Selectivity for Nav1.7, Nav subtype 1.2: membrane potential assay
T1 construct: host or cells: HEK293
Experimental: (§1) HEK293 cells stably expressing hNav1.1, hNav1.2, hNav1.3, hNav1.4, hNav1.5, hNav1.6, hNav1.7 and […] (SB Drug Discovery, Glasgow, UK) were cultured in minimum essential media (MEM) containing 10% v/v FBS supplemented with L-glutamine (2 mM) and selection antibiotics G-418 (0.5 mg/mL), blasticidin (2-4 μg/mL) and zeocin (0.5 mg/mL) as recommended by the manufacturer. CHO cells stably expressing hNav1.8 in a tetracycline-inducible system (Chantest, OH, USA) were cultured in Ham's F-12 containing 10% v/v FBS and selection antibiotics as recommended by the manufacturer. To induce hNav1.8 expression, cells were cultured in the presence of tetracycline (1 μg/mL) for 24 h at 27° C. Cells were grown in a humidified 5% CO2 incubator at 37° C., grown to 70-80% confluence, and passaged every 3-4 days using TrypLE Express (Invitrogen).
(§2) Cells were plated 48 h before the assay on 384-well black walled imaging plates at a density of 10,000 to 15,000 cells per well and were loaded with red membrane potential dye for 30 min at 37° C. (Molecular Devices, CA, USA). One vial of bulk red membrane potential dye was reconstituted to a 10× stock solution with PSS and stored at −20° C. and diluted to 1× solution with PSS on the day of the assay. […] Changes in membrane potential were assessed using the FLIPR^TETRA (excitation 515 to 545 nm, emission 565 to 625 nm) every second for 300 s after adding agonists.

hNav1.3 = target: T2, hNav1.3 (Homo sapiens, UniProt Q9NY46); assay: FLIPR membrane potential assay, hNav1.3; conditions: for Selectivity for Nav1.7, Nav subtype 1.3: membrane potential assay
T2 construct: host or cells: HEK293
Experimental: as §1, §2

hNav1.6 = target: T3, hNav1.6 (Homo sapiens, UniProt Q9UQD0); assay: FLIPR membrane potential assay, hNav1.6; conditions: for Selectivity for Nav1.7, Nav subtype 1.6: membrane potential assay
T3 construct: host or cells: HEK293
Experimental: as §1, §2

hNav1.1 = target: T4, hNav1.1 (Homo sapiens, UniProt P35498); assay: FLIPR membrane potential assay, hNav1.1; conditions: for Selectivity for Nav1.7, Nav subtype 1.1: membrane potential assay
T4 construct: host or cells: HEK293
Experimental: as §1, §2

hNav1.5 = target: T5, hNav1.5 (Homo sapiens, UniProt Q14524); assay: FLIPR membrane potential assay, hNav1.5; conditions: for Selectivity for Nav1.7, Nav subtype 1.5: membrane potential assay
T5 construct: host or cells: HEK293
Experimental: as §1, §2

hNav1.8 = target: T6, hNav1.8 (Homo sapiens, UniProt Q9Y5Y9); assay: FLIPR membrane potential assay, hNav1.8; conditions: for Selectivity for Nav1.7, Nav subtype 1.8: membrane potential assay
T6 construct: host or cells: HEK293
Experimental: as §1, §2

hNav1.4 = target: T7, hNav1.4 (Homo sapiens, UniProt P35499); assay: FLIPR membrane potential assay, hNav1.4; conditions: for Selectivity for Nav1.7, Nav subtype 1.4: membrane potential assay
T7 construct: host or cells: HEK293
Experimental: as §1, §2

hNav1.7 = target: T8, hNav1.7 (Homo sapiens, UniProt Q15858); assay: FLIPR membrane potential assay, hNav1.7; conditions: for Selectivity for Nav1.7, Nav subtype 1.7: membrane potential assay, reference subtype
T8 construct: host or cells: HEK293
Experimental: as §1, §2

T2 sequence (Q9NY46 whole entry): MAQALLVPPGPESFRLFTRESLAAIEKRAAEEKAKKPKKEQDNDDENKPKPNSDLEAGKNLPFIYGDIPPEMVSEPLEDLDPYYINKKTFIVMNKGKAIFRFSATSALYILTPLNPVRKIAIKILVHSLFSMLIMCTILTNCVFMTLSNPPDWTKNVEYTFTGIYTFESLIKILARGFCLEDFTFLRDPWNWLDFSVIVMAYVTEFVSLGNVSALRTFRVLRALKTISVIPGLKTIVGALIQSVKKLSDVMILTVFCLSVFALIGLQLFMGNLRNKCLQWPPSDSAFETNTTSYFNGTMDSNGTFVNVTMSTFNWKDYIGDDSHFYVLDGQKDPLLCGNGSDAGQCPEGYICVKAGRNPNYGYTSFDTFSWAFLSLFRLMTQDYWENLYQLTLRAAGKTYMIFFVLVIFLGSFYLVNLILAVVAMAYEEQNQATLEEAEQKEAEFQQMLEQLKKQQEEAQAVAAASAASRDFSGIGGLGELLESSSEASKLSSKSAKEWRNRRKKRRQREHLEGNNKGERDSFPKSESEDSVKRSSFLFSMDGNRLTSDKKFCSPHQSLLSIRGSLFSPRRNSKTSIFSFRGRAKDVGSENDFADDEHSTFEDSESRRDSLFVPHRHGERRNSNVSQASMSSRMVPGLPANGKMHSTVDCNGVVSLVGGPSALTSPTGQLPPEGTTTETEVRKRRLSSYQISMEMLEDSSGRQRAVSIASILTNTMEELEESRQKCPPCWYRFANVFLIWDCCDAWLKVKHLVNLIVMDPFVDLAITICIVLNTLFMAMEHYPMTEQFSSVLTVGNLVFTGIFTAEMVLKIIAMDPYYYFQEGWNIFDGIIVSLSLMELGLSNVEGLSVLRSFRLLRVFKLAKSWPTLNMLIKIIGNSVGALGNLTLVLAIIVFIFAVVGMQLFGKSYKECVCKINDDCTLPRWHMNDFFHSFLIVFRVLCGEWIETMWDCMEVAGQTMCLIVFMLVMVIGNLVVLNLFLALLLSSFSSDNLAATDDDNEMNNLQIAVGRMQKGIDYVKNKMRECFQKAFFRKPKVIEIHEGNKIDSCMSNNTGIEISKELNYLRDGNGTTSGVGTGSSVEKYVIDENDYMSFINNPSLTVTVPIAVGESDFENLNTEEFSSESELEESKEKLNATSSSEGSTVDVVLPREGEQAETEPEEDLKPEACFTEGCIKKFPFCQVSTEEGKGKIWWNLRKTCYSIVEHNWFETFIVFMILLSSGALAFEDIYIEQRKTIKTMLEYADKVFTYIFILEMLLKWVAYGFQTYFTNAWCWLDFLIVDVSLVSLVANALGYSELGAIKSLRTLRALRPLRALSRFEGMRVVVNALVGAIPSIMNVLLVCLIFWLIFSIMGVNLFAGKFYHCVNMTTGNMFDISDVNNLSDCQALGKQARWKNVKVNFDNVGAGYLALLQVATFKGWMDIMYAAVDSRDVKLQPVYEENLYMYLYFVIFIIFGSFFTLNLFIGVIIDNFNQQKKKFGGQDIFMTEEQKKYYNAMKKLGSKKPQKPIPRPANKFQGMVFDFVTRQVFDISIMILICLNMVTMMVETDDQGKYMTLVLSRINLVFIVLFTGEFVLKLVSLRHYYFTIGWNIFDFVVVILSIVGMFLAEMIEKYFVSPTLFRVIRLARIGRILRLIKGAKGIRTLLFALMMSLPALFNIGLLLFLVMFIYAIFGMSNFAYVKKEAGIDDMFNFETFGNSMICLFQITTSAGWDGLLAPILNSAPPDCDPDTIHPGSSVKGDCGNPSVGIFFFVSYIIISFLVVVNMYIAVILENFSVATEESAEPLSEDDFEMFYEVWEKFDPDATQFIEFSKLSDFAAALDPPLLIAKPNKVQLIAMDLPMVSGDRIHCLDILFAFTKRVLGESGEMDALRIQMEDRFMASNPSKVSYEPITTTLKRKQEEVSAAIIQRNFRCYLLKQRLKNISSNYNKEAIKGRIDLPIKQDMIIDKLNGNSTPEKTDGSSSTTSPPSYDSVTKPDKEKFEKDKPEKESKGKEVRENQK
T5 sequence (Q14524 whole entry): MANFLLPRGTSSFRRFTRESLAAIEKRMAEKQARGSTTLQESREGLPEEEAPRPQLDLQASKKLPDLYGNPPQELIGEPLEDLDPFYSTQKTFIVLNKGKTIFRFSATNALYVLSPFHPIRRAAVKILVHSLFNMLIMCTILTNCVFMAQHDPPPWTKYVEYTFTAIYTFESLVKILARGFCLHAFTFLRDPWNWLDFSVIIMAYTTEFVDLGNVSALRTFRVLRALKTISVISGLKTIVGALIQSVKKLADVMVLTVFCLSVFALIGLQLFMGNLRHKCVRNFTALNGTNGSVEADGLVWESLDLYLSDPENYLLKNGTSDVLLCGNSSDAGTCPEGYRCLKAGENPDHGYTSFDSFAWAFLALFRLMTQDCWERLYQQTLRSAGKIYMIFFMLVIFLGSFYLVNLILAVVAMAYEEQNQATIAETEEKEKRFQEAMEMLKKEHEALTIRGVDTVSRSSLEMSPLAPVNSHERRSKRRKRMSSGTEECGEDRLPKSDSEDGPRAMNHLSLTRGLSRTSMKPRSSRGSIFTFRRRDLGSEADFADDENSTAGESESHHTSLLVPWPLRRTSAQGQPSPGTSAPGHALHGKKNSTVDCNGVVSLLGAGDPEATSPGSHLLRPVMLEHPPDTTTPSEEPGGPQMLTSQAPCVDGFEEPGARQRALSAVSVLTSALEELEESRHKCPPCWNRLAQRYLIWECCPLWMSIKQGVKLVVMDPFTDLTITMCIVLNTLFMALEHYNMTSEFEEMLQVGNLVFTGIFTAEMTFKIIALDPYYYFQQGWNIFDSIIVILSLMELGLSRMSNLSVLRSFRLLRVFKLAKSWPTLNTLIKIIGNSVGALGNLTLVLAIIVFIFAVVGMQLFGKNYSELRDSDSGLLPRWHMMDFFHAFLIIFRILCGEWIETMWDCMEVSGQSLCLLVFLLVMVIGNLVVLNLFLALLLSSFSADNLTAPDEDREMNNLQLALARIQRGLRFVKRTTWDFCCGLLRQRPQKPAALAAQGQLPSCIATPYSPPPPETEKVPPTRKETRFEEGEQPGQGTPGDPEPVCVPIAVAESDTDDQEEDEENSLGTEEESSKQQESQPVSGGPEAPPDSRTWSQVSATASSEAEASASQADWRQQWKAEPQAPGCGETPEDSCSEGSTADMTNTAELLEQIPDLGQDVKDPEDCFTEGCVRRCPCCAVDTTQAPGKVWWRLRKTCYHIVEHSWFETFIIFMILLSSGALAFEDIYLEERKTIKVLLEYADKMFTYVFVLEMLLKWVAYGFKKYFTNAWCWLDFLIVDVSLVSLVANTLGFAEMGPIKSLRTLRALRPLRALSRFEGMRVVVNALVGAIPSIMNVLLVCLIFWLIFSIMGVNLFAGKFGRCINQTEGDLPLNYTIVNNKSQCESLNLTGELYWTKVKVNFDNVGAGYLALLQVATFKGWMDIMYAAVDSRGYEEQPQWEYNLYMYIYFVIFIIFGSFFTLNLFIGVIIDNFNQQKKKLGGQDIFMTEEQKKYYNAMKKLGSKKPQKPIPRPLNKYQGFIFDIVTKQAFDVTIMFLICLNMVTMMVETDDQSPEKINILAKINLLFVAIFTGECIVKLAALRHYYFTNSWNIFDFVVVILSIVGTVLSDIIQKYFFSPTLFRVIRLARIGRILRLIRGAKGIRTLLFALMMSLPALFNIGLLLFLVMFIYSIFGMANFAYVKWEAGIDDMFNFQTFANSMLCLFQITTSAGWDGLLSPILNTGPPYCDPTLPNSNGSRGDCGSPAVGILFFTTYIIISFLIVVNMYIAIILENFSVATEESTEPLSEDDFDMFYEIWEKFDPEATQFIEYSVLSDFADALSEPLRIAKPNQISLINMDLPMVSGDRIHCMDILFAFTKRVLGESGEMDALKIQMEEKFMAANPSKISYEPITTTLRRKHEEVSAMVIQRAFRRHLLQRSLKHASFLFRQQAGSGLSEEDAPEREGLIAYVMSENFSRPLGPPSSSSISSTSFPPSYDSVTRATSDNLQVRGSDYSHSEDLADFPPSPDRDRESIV

Compound | pIC50 (hNav1.2) | Selectivity for Nav1.7, Nav subtype 1.2 (hNav1.2) | pIC50 (hNav1.3) | Selectivity for Nav1.7, Nav subtype 1.3 (hNav1.3) | pIC50 (hNav1.6) | Selectivity for Nav1.7, Nav subtype 1.6 (hNav1.6) | pIC50 (hNav1.1) | Selectivity for Nav1.7, Nav subtype 1.1 (hNav1.1) | pIC50 (hNav1.5) | Selectivity for Nav1.7, Nav subtype 1.5 (hNav1.5) | pIC50 (hNav1.8) | Selectivity for Nav1.7, Nav subtype 1.8 (hNav1.8) | pIC50 (hNav1.4) | Selectivity for Nav1.7, Nav subtype 1.4 (hNav1.4) | pIC50 (hNav1.7) | Selectivity for Nav1.7, Nav subtype 1.7 (hNav1.7)
CSCC[C@@H]1NC(=O)[C@H](Cc2ccc(O)cc2)NC(=O)[C@H](CCCNC(=N)N)NC(=O)[C@@H](NC(=O)[C@@H](N)CC(=O)O)CSSC[C@@H]2NC(=O)[C@@H]3CSSC[C@@H](C(=O)N[C@@H](C)C(=O)N[C@@H](Cc4c[nH]c5ccccc45)C(=O)N[C@@H](CC(=O)O)C(=O)N[C@@H](Cc4ccccc4)C(=O)N[C@H](C(=O)N[C@@H](Cc4ccccc4)C(=O)N[C@H](C(=O)O)[C@@H](C)O)[C@@H](C)O)NC(=O)[C@H](Cc4ccc(O)cc4)NC(=O)[C@H](CCCCN)NC(=O)[C@H](CCSC)NC(=O)[C@H](CCCCN)NC(=O)[C@H](CCCNC(=N)N)NC(=O)[C@H](CCCCN)NC(=O)[C@H](CSSC[C@H](NC(=O)[C@H](CC(N)=O)NC(=O)CNC(=O)[C@H](Cc4ccccc4)NC1=O)C(=O)N[C@@H](CCC(=O)O)C(=O)N[C@@H](CCCCN)C(=O)N[C@@H](CC(=O)O)C(=O)N[C@@H](CCC(=O)O)C(=O)N[C@@H](CC(=O)O)C(=O)N3)NC(=O)CNC(=O)[C@H](CC(C)C)NC(=O)[C@H](Cc1c[nH]cn1)NC(=O)[C@H](CCCCN)NC2=O [[D8N]Pnc1a] (H-DCRYMFGNCEKDEDCCKHLGCKRKMKYCAWDFTFT-OH; disulfide 2-16, 9-21, 15-28) | 6.83 | 6 | 5.52 | 118 | < 4.52 | >1000 | 6.46 | 14 | < 4.52 | >1000 | < 4.52 | >1000 | 6.07 | 35 | 7.62 | 1
CSCC[C@@H]1NC(=O)[C@H](Cc2ccc(O)cc2)NC(=O)[C@H](CCCNC(=N)N)NC(=O)[C@@H](NC(=O)[C@@H](N)CC(=O)O)CSSC[C@@H]2NC(=O)[C@@H]3CSSC[C@@H](C(=O)N[C@@H](C)C(=O)N[C@@H](Cc4c[nH]c5ccccc45)C(=O)N[C@@H](CC(=O)O)C(=O)N[C@@H](Cc4ccccc4)C(=O)N[C@H](C(=O)N[C@@H](Cc4ccccc4)C(=O)N[C@H](C(=O)O)[C@@H](C)O)[C@@H](C)O)NC(=O)[C@H](Cc4ccc(O)cc4)NC(=O)[C@H](CCCCN)NC(=O)[C@H](CCSC)NC(=O)[C@H](CCCCN)NC(=O)[C@H](CCCCN)NC(=O)[C@H](CCCCN)NC(=O)[C@H](CSSC[C@H](NC(=O)[C@H](CC(=O)O)NC(=O)CNC(=O)[C@H](Cc4ccccc4)NC1=O)C(=O)N[C@@H](CCC(=O)O)C(=O)N[C@@H](CCCCN)C(=O)N[C@@H](CC(=O)O)C(=O)N[C@@H](CCC(=O)O)C(=O)N[C@@H](CC(=O)O)C(=O)N3)NC(=O)CNC(=O)[C@H](CC(C)C)NC(=O)[C@H](Cc1c[nH]cn1)NC(=O)[C@H](CCCCN)NC2=O [[R23K]Pnc1a] (H-DCRYMFGDCEKDEDCCKHLGCKKKMKYCAWDFTFT-OH; disulfide 2-16, 9-21, 15-28) | 5.52 | 14 | 5.30 | 19 | 4.80 | 63 | 5.10 | 33 | < 4.52 | >120 | < 4.52 | >120 | 5.00 | 40 | 6.60 | 1
CSCC[C@@H]1NC(=O)[C@H](Cc2ccc(O)cc2)NC(=O)[C@H](CCCNC(=N)N)NC(=O)[C@@H](NC(=O)[C@@H](N)CC(=O)O)CSSC[C@@H]2NC(=O)[C@@H]3CSSC[C@@H](C(=O)N[C@@H](C)C(=O)N[C@@H](Cc4c[nH]c5ccccc45)C(=O)N[C@@H](CC(=O)O)C(=O)N[C@@H](Cc4ccccc4)C(=O)N[C@H](C(=O)N[C@@H](Cc4ccccc4)C(=O)N[C@H](C(=O)O)[C@@H](C)O)[C@@H](C)O)NC(=O)[C@H](Cc4ccc(O)cc4)NC(=O)[C@H](CCCCN)NC(=O)[C@H](CCSC)NC(=O)[C@H](CCCCN)NC(=O)[C@H](CCCNC(=N)N)NC(=O)[C@H](CCCCN)NC(=O)[C@H](CSSC[C@H](NC(=O)CNC(=O)CNC(=O)[C@H](Cc4ccccc4)NC1=O)C(=O)N[C@@H](CCC(=O)O)C(=O)N[C@@H](CCCCN)C(=O)N[C@@H](CC(=O)O)C(=O)N[C@@H](CCC(=O)O)C(=O)N[C@@H](CC(=O)O)C(=O)N3)NC(=O)CNC(=O)[C@H](CC(C)C)NC(=O)[C@H](Cc1c[nH]cn1)NC(=O)[C@H](CCCCN)NC2=O [[D8G]Pnc1a] (H-DCRYMFGGCEKDEDCCKHLGCKRKMKYCAWDFTFT-OH; disulfide 2-16, 9-21, 15-28) | 6.52 | 6 | 6.18 | 13 | 5.70 | 46 | 5.70 | 35 | < 4.52 | >616 | < 4.52 | >616 | 5.70 | 48 | 7.31 | 1
CSCC[C@@H]1NC(=O)[C@H](Cc2ccc(O)cc2)NC(=O)[C@H](CCCNC(=N)N)NC(=O)[C@@H](NC(=O)[C@@H](N)CC(=O)O)CSSC[C@@H]2NC(=O)[C@@H]3CSSC[C@@H](C(=O)N[C@@H](C)C(=O)N[C@@H](Cc4c[nH]c5ccccc45)C(=O)N[C@@H](CC(=O)O)C(=O)N[C@@H](Cc4ccccc4)C(=O)N[C@H](C(=O)N[C@@H](Cc4ccccc4)C(=O)N[C@H](C(=O)O)[C@@H](C)O)[C@@H](C)O)NC(=O)[C@H](Cc4ccc(O)cc4)NC(=O)[C@H](CCCCN)NC(=O)[C@H](CCSC)NC(=O)[C@H](CCCCN)NC(=O)[C@H](CCCNC(=N)N)NC(=O)[C@H](CCCCN)NC(=O)[C@H](CSSC[C@H](NC(=O)[C@H](CCCCN)NC(=O)CNC(=O)[C@H](Cc4ccccc4)NC1=O)C(=O)N[C@@H](CCC(=O)O)C(=O)N[C@@H](CCCCN)C(=O)N[C@@H](CC(=O)O)C(=O)N[C@@H](CCC(=O)O)C(=O)N[C@@H](CC(=O)O)C(=O)N3)NC(=O)CNC(=O)[C@H](CC(C)C)NC(=O)[C@H](Cc1c[nH]cn1)NC(=O)[C@H](CCCCN)NC2=O [[D8K]Pnc1a] (H-DCRYMFGKCEKDEDCCKHLGCKRKMKYCAWDFTFT-OH; disulfide 2-16, 9-21, 15-28) | 7.40 | 3 | 5.70 | 159 | < 4.52 | >2000 | 6.62 | 19 | < 4.52 | >2000 | < 4.52 | >2000 | 6.18 | 52 | 7.89 | 1
CSCC[C@@H]1NC(=O)[C@H](Cc2ccc(O)cc2)NC(=O)[C@H](CCCNC(=N)N)NC(=O)[C@@H](NC(=O)[C@@H](N)CCCCN)CSSC[C@@H]2NC(=O)[C@@H]3CSSC[C@@H](C(=O)N[C@@H](C)C(=O)N[C@@H](Cc4c[nH]c5ccccc45)C(=O)N[C@@H](CC(=O)O)C(=O)N[C@@H](Cc4ccccc4)C(=O)N[C@H](C(=O)N[C@@H](Cc4ccccc4)C(=O)N[C@H](C(=O)O)[C@@H](C)O)[C@@H](C)O)NC(=O)[C@H](Cc4ccc(O)cc4)NC(=O)[C@H](CCCCN)NC(=O)[C@H](CCSC)NC(=O)[C@H](CCCCN)NC(=O)[C@H](CCCNC(=N)N)NC(=O)[C@H](CCCCN)NC(=O)[C@H](CSSC[C@H](NC(=O)[C@H](CC(=O)O)NC(=O)CNC(=O)[C@H](Cc4ccccc4)NC1=O)C(=O)N[C@@H](CCC(=O)O)C(=O)N[C@@H](CCCCN)C(=O)N[C@@H](CC(=O)O)C(=O)N[C@@H](CCC(=O)O)C(=O)N[C@@H](CC(=O)O)C(=O)N3)NC(=O)CNC(=O)[C@H](CC(C)C)NC(=O)[C@H](Cc1c[nH]cn1)NC(=O)[C@H](CCCCN)NC2=O [[D1K]Pnc1a] (H-KCRYMFGDCEKDEDCCKHLGCKRKMKYCAWDFTFT-OH; disulfide 2-16, 9-21, 15-28) | 6.58 | 8 | 5.40 | 134 | < 4.52 | >900 | 6.12 | 24 | < 4.52 | >900 | < 4.52 | >900 | 5.52 | 86 | 7.51 | 1
